We go through 10 molecules from patent US6635648B2, “Combination therapy using sympathetic nervous system antagonists and endothelin antagonists” (Queen's University at Kingston, priority 2000, dated 2003).

The nature of test [1]: NO-selectivity of depressor responses before and after maximal NOS blockade with L-NAME. In kind it is in vivo, rat. The conditions noted are these: for Change in Depressor Response: after vs before 100 mg/kg L-NAME; for Δ MAP L-NAME 100 mg/kg (mmHg): depressor agent after maximal NOS blockade with 100 mg/kg L-NAME; for Δ MAP Control (mmHg): depressor agent before L-NAME. As to the method:
(§1) Determination of MAP: Three days after surgery, MAP was recorded (PowerLab/8s DAS, ADInstruments, Milford, Mass.). […] An equilibration period of at least 1 hour was allowed prior to any experimentation to establish a steady baseline. […] Mean arterial pressure (MAP) and heart rate (HR) were calculated as an average over five minutes for steady state conditions and 10 seconds for transient drug responses.
Hypersensitivity to NO-mimetics following NOS blockade is shown to be the result of a specific interaction between ET and depressor agents that target the NO pathway. To confirm the specificity of this interaction, dose responses to a variety of depressor agents targeting both NO-dependent and NO-independent pathways were performed before and after maximal NOS blockade with 100 mg/kg L-NAME. One dose of each depressor agent that decreased MAP by approximately 10 mmHg was chosen for analysis. The agents compared were SNP ([…]; 30 s infusion), 8-bromo-cGMP (8-Br-cGMP; 3000 mg/kg/min; cumulative from 30, 100, 300, 1000, 3000 dose response, 2 min infusion, 3 min between doses), bradykinin (30 mg/kg/min; 30 s infusion), PGE1 ([…]; cumulative dose response, 20 min/dose) and INE (0.2 mg/kg/min; 30 s infusion).

A short description of test [2]: Vascular reactivity: depressor response to NO-mimetic sodium nitroprusside (SNP) infusion. In kind it is in vivo, rat. The conditions noted are these: for Change in Vascular Response to SNP: Table 3; for depressor response to SNP: treatment alone at maximal blockade (L-NAME 30 mg/kg), SNP 1-30 μg/kg/min i.v.; for depressor response to SNP in the presence of L-NAME: treatment combined with L-NAME 3 and 30 mg/kg. The protocol:
as §1
(§2) Data Analysis: Dose responses to N^ω-nitro-L-arginine-methyl ester (L-NAME, Sigma, Mo.) in terazosin- or prazosin-treated animals vs control were compared using unpaired, two-tailed t-test for each dose. […] In all cases a p value less than 0.05 was considered to be statistically significant.
This set of experiments examined whether alpha-adrenoceptor antagonism and/or complete removal of α-signaling could also alter vascular reactivity to exogenous NO. […] Reactivity was then determined following minimal and maximal NOS blockade by administration of a low dose followed by a high dose of L-NAME (3 and 30 mg/kg L-NAME i.v., respectively). […] In these animals additional dose responses to each NO-donor were performed after initial alpha-adrenoceptor antagonism and before L-NAME treatment. Further assessment of the impact of removal of α1-adrenoceptor signaling was made through ganglionic blockade with hexamethonium (30 mg/kg i.v.). Down-stream sympathetic signaling is effectively abolished by completely blocking the ganglia with hexamethonium.

Test [3] can be described thus: Mean arterial pressure (MAP) in conscious catheterised rats after drug treatment. In kind it is in vivo, rat. As to conditions: for Δ MAP (from initial baseline; mmHg): Table 3, L-NAME 3 mg/kg in the triple combination; for MAP after terazosin treatment: terazosin 2 mg/kg i.v., SB209670 treated animals (label SB209670) vs animals without SB209670 (label terazosin). As to the method: Animals: Male Sprague-Dawley rats (250-300 g) from Charles River Laboratories (St. Constant, Quebec) were individually housed under conditions of 12-hour light/dark cycle at a room temperature of 22-24° C. Purina® rodent chow and tap water were provided ad libitum. Rats were housed for at least one day prior to catheter implantation and allowed a minimum of 3 days to recover from the surgery before any experiments. […] Experiments were performed in accordance with standards established by the Canadian Council of Animal Care.
Surgery: The surgical technique was based on that described by Thompson et al. (Hypertension. 20(6):809-815, 1992). In brief, rats were anaesthetized with Hypnorm®/Nersed® (1:2:1 ratio of Hypnorm®:H2O:Versed® at a dose rate of 3 ml/kg i.p.). […] An additional catheter sat loosely in the abdominal cavity for intra-peritoneal administration of drugs. All catheters were tunneled subcutaneously, exteriorized at the nape of the neck and sutured into place. The catheters were filled with heparin saline (50 IU/ml) and sealed at the exposed end.
as §1
The NOS antagonist L-NAME was administered in increasing doses (1,3,10,30 mg/kg i.v.). MAP was measured after each dose when pressure reached steady state (10 min).

Test [4] in a line: Overshoot and rate of recovery of MAP following 30 second SNP depressor challenge. In kind it is in vivo, rat. The conditions noted are these: for Overshoot (mmHg) of MAP relative to control response: following SNP (10 μg/kg/min) depressor challenge, maximal blockade, 3 mg/kg L-NAME in TRZ combinations; for Rate of Recovery (mmHg/s): following SNP (30 μg/kg/min) depressor challenge, 10 second interval after onset of recovery; for Overshoot: Change vs Control: following SNP (10 mg/kg/min) depressor challenge; for Rate of Recovery: Change vs Control: following SNP (30 mg/kg/min) depressor challenge. As to the method: as §1
In Examples 2, 3 and 4, we used a 30 second infusion of SNP to induce a transient depressor response (less than 1 minute) in order to assess mechanisms involved in homeostatic adjustment, in each case comparing treatment to the respective control response (FIG. 8, Table 3). […] In contrast, after α1-adrenoceptor antagonism the response to the depressor challenge was altered such that there was a marked overshoot of MAP above baseline during the recovery phase. In some instances MAP took in excess of five minutes to return to baseline following the overshoot. […] This response was unchanged by NOS antagonism (FIG. 8b) and RAS inhibition (FIG. 8c).
In addition, we characterized the rate of recovery of MAP as determined by the upward slope of the arterial blood pressure trace during a 10 second interval immediately after the onset of recovery (Table 4). […] In contrast, the combination of alpha-blockade and NOS antagonism doubled the magnitude of the recovery slope.

Test [5] can be described thus: Vascular reactivity: depressor response to NO-mimetic glyceryl trinitrate (GTN) infusion. The test is classed as in vivo, rat. As to the method: as §1, §2
NOS blockade hypertension also results in a hypersensitivity to NO-mimetics such as SNP and GTN. This set of experiments examined whether alpha-adrenoceptor antagonism and/or complete removal of α-signaling could also alter vascular reactivity to exogenous NO. Dose response curves to 30 second infusions of the NO-mimetics sodium nitroprusside (1-30 μg/kg/min SNP i.v.) or glyceryl trinitrate (25-1600 μg/kg/min GTN i.v.) were generated in control animals to determine normal vasodilatory reactivity to exogenous NO. Reactivity was then determined following minimal and maximal NOS blockade by administration of a low dose followed by a high dose of L-NAME (3 and 30 mg/kg L-NAME i.v., respectively). […] In these animals additional dose responses to each NO-donor were performed after initial alpha-adrenoceptor antagonism and before L-NAME treatment. Further assessment of the impact of removal of α1-adrenoceptor signaling was made through ganglionic blockade with hexamethonium (30 mg/kg i.v.). Down-stream sympathetic signaling is effectively abolished by completely blocking the ganglia with hexamethonium. After establishment of a control dose response to SNP, maximal ganglionic blockade was induced and MAP was allowed to reach a steady state. The vascular reactivity to SNP was reassessed after hexamethonium alone and following both a low then high dose of L-NAME (3 and 30 mg/kg L-NAME i.v., respectively).

For test [6] the following is noted: compared with the placebo group; cited from earlier work.
Where [7] appears, read: treatment alone at maximal blockade (L-NAME 30 mg/kg), GTN 25-1600 μg/kg/min i.v.

In the case of `Nc1nc2c(nc(Br)n2[C@@H]2O[C@@H]3COP(=O)(O)O[C@H]3[C@H]2O)c(=O)[nH]1` [8-Br-cGMP, 8-bromo-cyclic-GMP], in test [1], the “Change in Depressor Response” value is “↑↑”, the “Δ MAP L-NAME 100 mg/kg (mmHg)” value was −26.57 ± 6.76 mmHg and the “Δ MAP Control (mmHg)” value was −0.67 ± 2.83 mmHg.

In the case of `C[N+](C)(C)CCCCCC[N+](C)(C)C` [Hexamethonium, hexamethonium], in test [2], the “Change in Vascular Response to SNP” value is reported as “↑”, the “depressor response to SNP” value is given as “induced an almost identical pattern of hypersensitivity” and the “depressor response to SNP in the presence of L-NAME” value was “further enhanced”. In addition, the “Δ MAP (from initial baseline; mmHg)” value in test [3] is given as −18 ± 10.0 mmHg.

As to `CC(C)NCC(O)c1ccc(O)c(O)c1` (stereo not drawn) [Isopropyl-norepinephrine (INE), Isopropyl-norepinephrine], in test [1], the “Change in Depressor Response” value is reported as “←→”, the “Δ MAP L-NAME 100 mg/kg (mmHg)” value is −10.52 ± 4.04 mmHg and the “Δ MAP Control (mmHg)” value is −9.42 ± 7.38 mmHg.

Take `COC(=O)[C@@H](N)CCCNC(=N)N[N+](=O)[O-]` [L-NAME, N^ω-nitro-L-arginine-methyl ester]: in test [4], the “Overshoot (mmHg) of MAP relative to control response” value is reported as −1.6 ± 3.68 mmHg, the “Rate of Recovery (mmHg/s)” value came out at 1.2 ± 0.73 mmHg/s, the “Overshoot: Change vs Control” value is listed as “←→” and the “Rate of Recovery: Change vs Control” value was “←→”. For the same molecule, in test [5] (moderate NOS blockade, 3 mg/kg L-NAME alone), the “vascular reactivity to GTN” value is “did not produce a significant change”. Besides, the “depressor response to GTN” value in test [5] (setting [7]) was “enhanced”. Besides, in test [2], the “Change in Vascular Response to SNP” value was “↑” and the “depressor response to SNP” value is on record as “enhanced”. In addition, the “Δ MAP (from initial baseline; mmHg)” value in test [3] was found to be 36 ± 11.1 mmHg.

For the molecule `CCCCC[C@H](O)/C=C/[C@H]1[C@H](O)CC(=O)[C@@H]1CCCCCCC(=O)O` [PGE1], in test [1], the “Change in Depressor Response” value is listed as “←→”, the “Δ MAP L-NAME 100 mg/kg (mmHg)” value is on record as −15.51 ± 9.74 mmHg and the “Δ MAP Control (mmHg)” value is −15.21 ± 5.72 mmHg.

For the molecule `CCCOc1ccc2c(c1)[C@@H](c1ccc(OC)cc1OCC(=O)O)[C@H](C(=O)O)[C@H]2c1ccc2c(c1)OCO2` [SB209670], the “overshoot of MAP in treatment groups demonstrating overshoot” value in test [4] (co-administration with alpha-adrenoceptor antagonist with or without NOS antagonist) is on record as “abolished”. Further, in test [4], the “Overshoot (mmHg) of MAP relative to control response” value stood at 0.5 ± 4.98 mmHg, the “Rate of Recovery (mmHg/s)” value is recorded as 1.4 ± 1.00 mmHg/s, the “Overshoot: Change vs Control” value is reported as “←→” and the “Rate of Recovery: Change vs Control” value was “←→”. Further, the “enhanced SNP response with terazosin combined with moderate NOS antagonism” value in test [2] (terazosin 2 mg/kg + L-NAME 3 mg/kg + SB209670) is “prevented”. Besides, the “dose response to SNP after terazosin treatment” value in test [2] (terazosin 2 mg/kg i.v. in animals receiving SB209670) was “significantly blunted”. In addition, the “effect on MAP vs control” value in test [3] (SB209670 alone) was “did not lower MAP significantly”. In test [3] (SB209670 i.v. bolus then 100 μg/kg/min infusion, alone, control 98.29±6.43), this molecule had an MAP of 90.41±4.36 mmHg. Also, in test [3], the “MAP after terazosin treatment” value is reported as 51.83±4.02 mmHg.

On to `COc1cc2nc(N3CCN(C(=O)C4CCCO4)CC3)nc(N)c2cc1OC` (stereo not drawn) [Terazosin, terazosin], for which, in test [4], the “Overshoot (mmHg) of MAP relative to control response” value is 45 ± 5.19 mmHg, the “Rate of Recovery (mmHg/s)” value was 1.2 ± 0.42 mmHg/s, the “Overshoot: Change vs Control” value is recorded as “↑” and the “Rate of Recovery: Change vs Control” value is listed as “←→”. For the same molecule, in test [5] (terazosin combined with moderate NOS blockade (3 mg/kg L-NAME)), the “depressor response to GTN” value is recorded as “significantly enhanced”. Further, in test [5] (setting [7]), the “depressor response to GTN” value is listed as “only statistically significant at the highest dose of GTN”. Also, in test [2], the “Change in Vascular Response to SNP” value is “↑”, the “depressor response to SNP” value was “enhanced” and the “depressor response to SNP in the presence of L-NAME” value was “enhanced relative to control”. Moreover, in test [3], the “Δ MAP (from initial baseline; mmHg)” value is −28 ± 18.5 mmHg and the “MAP after terazosin treatment” value worked out at 77.37±17.48 mmHg. For the same molecule, the “decrease in MAP” value in test [3] (losartan + enalaprilat 30 mg/kg i.p. 1:1 vs terazosin alone) stood at 28.09±18.49.

Take `O=[N+]([O-])O[C@H]1CO[C@H]2[C@@H]1OC[C@H]2O[N+](=O)[O-]` [isosorbide dinitrate]: the “mortality among patients with chronic congestive heart failure” value in test [6] is “reduced significantly”.

In the case of `CCCCc1nc(Cl)c(CO)n1Cc1ccc(-c2ccccc2-c2nn[nH]n2)cc1` [losartan], in test [2], the “depressor response to SNP” value is “failed to increase the sensitivity”.

As to `COc1cc2nc(N3CCN(C(=O)c4ccco4)CC3)nc(N)c2cc1OC` [prazosin], the “mortality among patients with chronic congestive heart failure” value in test [6] was “the same”. In test [3] (prazosin 3 mg/kg i.v. or terazosin 2 mg/kg i.v., steady state, conscious rats), the “lowering of MAP after alpha-adrenoceptor antagonist” value stood at 36.35±13.96 mmHg.
